In ChEMBL document CHEMBL1201862, “PubChem BioAssay data set” (2004):
The source made the active and inactive calls.

Biological target: T1, Replicative DNA helicase DnaB (Mycobacterium tuberculosis, UniProt P9WMR3)
T1 sequence (P9WMR3 whole entry): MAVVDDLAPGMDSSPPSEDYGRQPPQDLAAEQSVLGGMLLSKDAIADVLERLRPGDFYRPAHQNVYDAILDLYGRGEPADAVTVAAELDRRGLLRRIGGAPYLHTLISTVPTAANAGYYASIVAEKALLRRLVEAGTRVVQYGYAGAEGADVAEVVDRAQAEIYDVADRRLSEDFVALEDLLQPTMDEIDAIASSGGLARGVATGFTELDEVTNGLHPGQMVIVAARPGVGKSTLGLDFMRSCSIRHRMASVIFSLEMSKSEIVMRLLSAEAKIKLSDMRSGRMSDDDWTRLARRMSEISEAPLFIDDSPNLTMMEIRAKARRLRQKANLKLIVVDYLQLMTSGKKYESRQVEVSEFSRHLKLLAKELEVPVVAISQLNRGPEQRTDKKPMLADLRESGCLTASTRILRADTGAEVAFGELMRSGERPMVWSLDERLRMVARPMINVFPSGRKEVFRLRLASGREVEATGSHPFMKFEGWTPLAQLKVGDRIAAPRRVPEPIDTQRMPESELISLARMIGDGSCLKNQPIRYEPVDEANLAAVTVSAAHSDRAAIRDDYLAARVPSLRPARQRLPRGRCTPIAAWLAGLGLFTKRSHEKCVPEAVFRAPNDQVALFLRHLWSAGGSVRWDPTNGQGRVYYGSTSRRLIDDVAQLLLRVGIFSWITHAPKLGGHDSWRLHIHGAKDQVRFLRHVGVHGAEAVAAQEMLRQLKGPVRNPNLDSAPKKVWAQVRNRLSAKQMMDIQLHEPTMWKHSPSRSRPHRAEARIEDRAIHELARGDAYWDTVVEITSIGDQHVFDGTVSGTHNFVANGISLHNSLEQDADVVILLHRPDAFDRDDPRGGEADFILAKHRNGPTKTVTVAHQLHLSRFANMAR
Assay: DnaB intein splicing inhibitors, dose response, biochemical, cell-free fluorescence (AID 449749)
Assay type: functional
Settings: not given

SMILES | AC50
O=[N+]([O-])c1ccc(Oc2ccc(F)cc2)c2ccncc12 | > 380 µM (inactive)
CCCCCCOC(=O)c1ccc(OC(=O)c2cccnc2)cc1 | 3.69 µM (active)
Cc1ccc(C)c(N/C([S-])=C(/C(=O)c2ccc(OC(F)F)cc2)[n+]2ccccc2)c1 | 36.6 µM (active)
COc1ccc(NC(=O)/C(C#N)=C/c2ncc([N+](=O)[O-])n2C)c(OC)c1 | 67.5 µM (active)
Cc1[nH][nH]c(=O)c1C(c1ccc(N(C)C)c(Br)c1)c1c(C)[nH][nH]c1=O | 0.467 µM (active)
O=C(c1c[nH]c(C(=O)C(Cl)(Cl)Cl)c1)c1ccccc1Br | 6.31 µM (active)
C/C(CC(=O)Nc1cc(C)ccn1)=N\NC(=O)c1ccccc1C | 26.8 µM (active)

Biological target: T2, Protein RecA (Mycobacterium tuberculosis, UniProt P9WHJ3)
T2 sequence (P9WHJ3 whole entry): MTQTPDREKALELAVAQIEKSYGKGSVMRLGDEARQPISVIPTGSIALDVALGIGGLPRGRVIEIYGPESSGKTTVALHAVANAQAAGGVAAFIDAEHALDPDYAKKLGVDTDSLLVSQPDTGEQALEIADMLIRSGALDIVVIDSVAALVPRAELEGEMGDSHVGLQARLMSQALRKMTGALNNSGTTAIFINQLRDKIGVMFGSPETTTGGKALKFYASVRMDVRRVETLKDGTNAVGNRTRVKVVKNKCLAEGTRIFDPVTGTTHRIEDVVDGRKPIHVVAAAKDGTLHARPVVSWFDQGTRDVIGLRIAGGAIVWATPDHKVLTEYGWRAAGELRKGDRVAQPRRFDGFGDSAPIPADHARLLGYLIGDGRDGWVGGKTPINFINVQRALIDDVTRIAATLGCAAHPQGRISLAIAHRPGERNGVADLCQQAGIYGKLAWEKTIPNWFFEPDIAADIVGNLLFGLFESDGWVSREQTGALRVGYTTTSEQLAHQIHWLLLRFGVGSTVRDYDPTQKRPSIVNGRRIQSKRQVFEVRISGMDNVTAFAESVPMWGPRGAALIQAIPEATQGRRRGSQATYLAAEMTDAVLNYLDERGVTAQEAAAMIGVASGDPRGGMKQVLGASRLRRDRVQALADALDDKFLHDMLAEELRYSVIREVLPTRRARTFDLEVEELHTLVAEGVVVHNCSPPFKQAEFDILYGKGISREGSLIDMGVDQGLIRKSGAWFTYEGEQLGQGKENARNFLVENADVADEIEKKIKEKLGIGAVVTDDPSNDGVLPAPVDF
Assay: Fluorescence Cell-Free Homogeneous Dose Retest to Identify Inhibitors of RecA-Intein Splicing Activity. [Related pubchem assays (depositor defined):AID2097, AID2223, AID489010, AID492950]
Assay type: functional
Settings: not given

SMILES | EC50
O=[N+]([O-])c1ccc(Oc2ccc(F)cc2)c2ccncc12 | 1.4 µM (active)
CCCCCCOC(=O)c1ccc(OC(=O)c2cccnc2)cc1 | 3.58 µM (active)
Cc1ccc(C)c(N/C([S-])=C(/C(=O)c2ccc(OC(F)F)cc2)[n+]2ccccc2)c1 | 11.5 µM (active)
COc1ccc(NC(=O)/C(C#N)=C/c2ncc([N+](=O)[O-])n2C)c(OC)c1 | 15.6 µM (active)
Cc1[nH][nH]c(=O)c1C(c1ccc(N(C)C)c(Br)c1)c1c(C)[nH][nH]c1=O | 0.274 µM (active)
O=C(c1c[nH]c(C(=O)C(Cl)(Cl)Cl)c1)c1ccccc1Br | 6.33 µM (active)
C/C(CC(=O)Nc1cc(C)ccn1)=N\NC(=O)c1ccccc1C | 6.24 µM (active)

Test system: H9c2;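 note: confirmatory concentration-response retest of ultra-high-throughput screening hits for modulation of myocardial damage; cell death induced by hydrogen peroxide oxidative stress; compound pretreatment for 60 min then peroxide exposure for 2 h; potency is for protecting the cells against peroxide damage rather than for killing them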
Assay: cells
Assay type: functional, cell-based
Settings: Rattus norvegicus, H9c2, Myocardium

SMILES | IC50
Oc1nnc(-c2cccs2)c2ccccc12 | 19.4 µM (active)
COc1ccc(S(=O)(=O)N2CC(O)CC2C(=O)OCc2nc(O)c3c(C)c(C)sc3n2)cc1 (stereo not drawn) | 31 µM (inactive)
COC(=O)c1ccc(CSc2ccc3nnc(-c4cccc(F)c4)n3n2)o1 | > 79 µM (inactive)
COc1ccc(NC(=O)COc2cccc3c2CCNC3=O)cc1 | > 79 µM (inactive)
Cn1c(=O)[nH]c(=O)c2c1nc(NCCc1ccccc1)n2CC(O)COc1ccccc1 (stereo not drawn) | > 79 µM (inactive)
Cc1ccc(C(=O)Nc2cccc(C(F)(F)F)c2)cc1NC(=O)c1csc(-c2ccncc2)n1 | > 79 µM (inactive)
COc1ccc2nc(O)c(CNC3CCCCC3)cc2c1 | 46.3 µM (inactive)
CC(C)(C)OC(=O)CNC(=O)c1[nH]cnc1C(=O)Nc1ccc(CNC(=O)OC(C)(C)C)cc1 | > 79 µM (inactive)
C[C@H](CO)N1C[C@H](C)[C@@H](CN(C)S(=O)(=O)c2cccs2)Oc2ccc(NC(=O)Nc3ccccc3)cc2C1=O | 11.9 µM (active)
Cc1cccc(NC(=O)c2[nH]cnc2C(=O)NCCCCNC(=O)c2nc[nH]c2C(=O)Nc2cccc(C)c2)c1 | > 79 µM (inactive)
Cc1nn(Cc2ccc(C(=O)N3CCN(C(=O)c4ccco4)CC3)o2)c(C)c1[N+](=O)[O-] | 21.9 µM (active)

Biological target: T3, Protein skinhead-1 (Caenorhabditis elegans, UniProt P34707)
T3 sequence (P34707 whole entry): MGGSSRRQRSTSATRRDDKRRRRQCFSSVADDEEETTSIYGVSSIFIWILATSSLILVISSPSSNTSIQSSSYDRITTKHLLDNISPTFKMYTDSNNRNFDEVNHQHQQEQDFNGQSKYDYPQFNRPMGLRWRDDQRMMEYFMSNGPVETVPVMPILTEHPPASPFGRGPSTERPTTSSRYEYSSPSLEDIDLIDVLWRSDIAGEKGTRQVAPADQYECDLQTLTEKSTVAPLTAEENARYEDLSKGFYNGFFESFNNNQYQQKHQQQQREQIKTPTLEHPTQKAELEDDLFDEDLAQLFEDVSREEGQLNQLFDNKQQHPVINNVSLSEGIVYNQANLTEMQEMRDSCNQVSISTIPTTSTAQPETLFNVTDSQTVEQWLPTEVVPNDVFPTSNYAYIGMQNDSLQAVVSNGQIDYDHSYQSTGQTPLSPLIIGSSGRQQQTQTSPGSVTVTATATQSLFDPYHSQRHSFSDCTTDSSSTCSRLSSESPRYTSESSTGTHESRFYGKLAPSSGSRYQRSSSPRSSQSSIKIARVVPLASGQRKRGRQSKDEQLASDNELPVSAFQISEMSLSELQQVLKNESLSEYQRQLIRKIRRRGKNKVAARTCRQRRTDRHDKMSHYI
Assay: not given
Assay type: functional
Settings: not given

SMILES | IC50
Fc1ccc(-c2csc(Nc3ccccn3)n2)c(F)c1 | > 100 µM (inactive)
CCN(CC)CCN1C(=O)C(O)=C(C(=O)c2cnn(-c3ccccc3)c2C)C1c1ccc(C)o1 (stereo not drawn) | > 100 µM (inactive)
O=[N+]([O-])c1ccc(Oc2ccc(F)cc2)c2ccncc12 | > 100 µM (inactive)
COc1ccccc1-c1c(C(F)(F)F)oc2cc(OC(=O)c3cccc([N+](=O)[O-])c3C)ccc2c1=O | > 100 µM (inactive)
CCn1c(C)c(C2=CCN(S(=O)(=O)c3ccccc3)CC2)c2ccccc21 | > 100 µM (inactive)
Cc1cc(C)n2c(SCc3c(C)noc3C)nnc2n1 | > 100 µM (inactive)
O=C(NCC(=O)N(Cc1cccs1)C(C(=O)NC1CCCCC1)c1ccncc1)c1ccco1 (stereo not drawn) | > 100 µM (inactive)
CCCNCc1cc(Cl)c(OCC)c(Cl)c1 | > 100 µM (inactive)
c1ccc(OCc2nc(-c3cccs3)no2)cc1 | 31.5 µM (active)
CCOc1cccc2cc(C(=O)N3CCc4ccccc43)c(=O)oc12 | > 100 µM (inactive)
COCCCn1c(SCC(=O)NC(C)C)nnc1-c1ccccc1 | > 100 µM (inactive)
Clc1ccc(-c2nnsc2SCc2ccccc2)cc1 | > 100 µM (inactive)
O=C(Nc1cc(C(F)(F)F)ccc1N1CCCCC1)C1=COCCO1 | > 100 µM (inactive)

Biological target: T4, Rac GTPase-activating protein 1 (Homo sapiens, UniProt Q9H0H5)
T4 sequence (Q9H0H5 whole entry): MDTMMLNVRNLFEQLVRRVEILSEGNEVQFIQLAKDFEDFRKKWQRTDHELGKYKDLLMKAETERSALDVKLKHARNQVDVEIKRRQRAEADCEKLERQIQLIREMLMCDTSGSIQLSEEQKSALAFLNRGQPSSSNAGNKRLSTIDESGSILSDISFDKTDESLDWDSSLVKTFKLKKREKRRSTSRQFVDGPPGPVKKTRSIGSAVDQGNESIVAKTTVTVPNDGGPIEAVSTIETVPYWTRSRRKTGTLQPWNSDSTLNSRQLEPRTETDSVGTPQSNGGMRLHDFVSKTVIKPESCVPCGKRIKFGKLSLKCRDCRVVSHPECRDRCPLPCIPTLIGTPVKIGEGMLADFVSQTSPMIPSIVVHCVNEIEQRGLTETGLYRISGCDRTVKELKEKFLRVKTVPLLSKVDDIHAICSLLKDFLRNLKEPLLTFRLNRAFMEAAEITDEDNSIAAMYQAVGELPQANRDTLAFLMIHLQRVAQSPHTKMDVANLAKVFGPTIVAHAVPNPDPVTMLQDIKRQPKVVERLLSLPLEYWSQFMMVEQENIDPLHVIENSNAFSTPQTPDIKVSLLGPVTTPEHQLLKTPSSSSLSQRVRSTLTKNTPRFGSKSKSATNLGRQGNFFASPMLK
Assay: MgcRacGAP GTPase-activating activity inhibitors, confirmation, biochemical, ADP Hunter fluorescence, primary and confirmatory (AID 624330)
Assay type: functional
Settings: not given

SMILES | IC50
CCOC(=O)C1CCN(Cc2c[nH]nc2-c2ccccc2)CC1 | 131 µM (active)
COc1ccc(NC2CCCN(C(=O)CSc3ccccc3)C2)cc1OC (stereo not drawn) | 60 µM (active)
COc1ccc(C=NNC(=O)c2cc(C)oc2C)cc1O | 107 µM (active)
Nc1nc(N)c2[nH]c(S)nc2n1 | 163 µM (active)
O=C(CCCCCNC(=O)c1ccccc1)N/N=C/c1ccc(O)cc1O | 69.9 µM (active)
O=C1CC(Nc2ccc(N3CCOCC3)cc2)C(=O)N1Cc1ccccc1 (stereo not drawn) | 140 µM (active)

Test system: not listed separately
Assay: inhibitors of HIV Env-driven cell fusion, dose response, cherry-pick (AID 652057)
Assay type: functional, cell-based
Settings: not given

SMILES | AC50
CC(C)CC#Cc1ccc2c(c1)O[C@@H](CN(C)Cc1ccccn1)[C@H](C)CN([C@H](C)CO)S2(=O)=O | 26.1 µM (active)

Test system: not listed separately
Assay: ZM109 Env clade C HIV-1 fusion inhibitors, dose response, HeLa effector, CEM target cells, luciferase, cherry-pick (AID 652058)
Assay type: functional, cell-based
Settings: not given

SMILES | AC50
CCOC(=O)C1CCCN(Cc2nc(N)nc(Nc3ccc(OC)cc3)n2)C1 (stereo not drawn) | 4.93 µM (active)
CC(C)NC(=O)Nc1ccc2c(c1)C(=O)N([C@@H](C)CO)C[C@H](C)[C@H](CN(C)C(=O)Nc1ccc(F)cc1)O2 | 22.4 µM (active)
CC(C)CC#Cc1ccc2c(c1)O[C@@H](CN(C)Cc1ccccn1)[C@H](C)CN([C@H](C)CO)S2(=O)=O | 31.9 µM (active)

Test system: not listed separately
Assay: inhibitors of clade B AD8 Env fusion, dose response, cell-based, cherry-pick (AID 652062);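 note: luciferase signal from cell-cell fusion driven by HIV-1 clade B AD8 Env; potency is for inhibitors of fusion seen as a drop in luminescence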
Assay type: functional
Settings: not given

SMILES | AC50
CCOC(=O)C1CCCN(Cc2nc(N)nc(Nc3ccc(OC)cc3)n2)C1 (stereo not drawn) | 27 µM (active)
CC(C)NC(=O)Nc1ccc2c(c1)C(=O)N([C@@H](C)CO)C[C@H](C)[C@H](CN(C)C(=O)Nc1ccc(F)cc1)O2 | 58.4 µM (active)
CC(C)CC#Cc1ccc2c(c1)O[C@@H](CN(C)Cc1ccccn1)[C@H](C)CN([C@H](C)CO)S2(=O)=O | 26 µM (active)

Biological target: Cytochrome P450 3A4 (Homo sapiens, UniProt P08684);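 note: CYP3A4 tested as one member of a cytochrome P450 panel screen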
Sequence (P08684 whole entry): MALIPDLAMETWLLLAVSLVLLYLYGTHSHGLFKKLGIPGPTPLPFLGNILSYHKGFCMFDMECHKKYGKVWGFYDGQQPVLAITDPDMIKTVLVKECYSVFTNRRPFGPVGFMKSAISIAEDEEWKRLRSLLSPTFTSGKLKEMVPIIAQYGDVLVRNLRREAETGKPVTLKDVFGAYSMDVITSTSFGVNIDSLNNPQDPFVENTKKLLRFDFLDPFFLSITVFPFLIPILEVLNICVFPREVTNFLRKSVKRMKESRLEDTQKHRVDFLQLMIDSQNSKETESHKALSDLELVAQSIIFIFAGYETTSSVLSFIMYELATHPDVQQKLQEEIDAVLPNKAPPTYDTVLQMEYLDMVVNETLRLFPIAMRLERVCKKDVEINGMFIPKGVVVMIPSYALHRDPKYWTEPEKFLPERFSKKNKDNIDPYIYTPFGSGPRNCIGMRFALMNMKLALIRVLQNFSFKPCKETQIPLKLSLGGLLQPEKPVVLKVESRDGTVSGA
Assay: not given
Settings: not given

SMILES | AC50
COc1ccccc1-c1c(C(F)(F)F)oc2cc(OC(=O)c3cccc([N+](=O)[O-])c3C)ccc2c1=O | 12.6 µM (inconclusive)

Biological target: Cytochrome P450 2C9 (Homo sapiens, UniProt P11712)
Sequence (P11712 whole entry): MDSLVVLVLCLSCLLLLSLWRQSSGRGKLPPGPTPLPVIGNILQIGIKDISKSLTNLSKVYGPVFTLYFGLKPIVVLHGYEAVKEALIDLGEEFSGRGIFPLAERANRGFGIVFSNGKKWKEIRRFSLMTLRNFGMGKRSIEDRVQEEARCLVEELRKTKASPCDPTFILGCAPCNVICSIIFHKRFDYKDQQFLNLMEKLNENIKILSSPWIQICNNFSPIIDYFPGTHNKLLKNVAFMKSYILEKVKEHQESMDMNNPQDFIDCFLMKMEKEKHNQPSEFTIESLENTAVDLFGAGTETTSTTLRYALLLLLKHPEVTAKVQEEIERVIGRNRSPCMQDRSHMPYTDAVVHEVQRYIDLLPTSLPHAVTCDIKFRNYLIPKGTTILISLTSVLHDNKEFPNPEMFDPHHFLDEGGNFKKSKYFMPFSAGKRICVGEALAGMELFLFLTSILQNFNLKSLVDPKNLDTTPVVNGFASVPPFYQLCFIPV
Assay: not given
Settings: not given

SMILES | AC50
COc1ccccc1-c1c(C(F)(F)F)oc2cc(OC(=O)c3cccc([N+](=O)[O-])c3C)ccc2c1=O | 0.447 µM (inconclusive)
